Patent US7060733B2, “Methods for treating pancreatitis with curcumin compounds and inhibitors of reactive oxygen species” (The Regents of the University of California, priority 2002, dated 2006)
“Also recorded” adds a separate entry of the source.

Assays:
[1] = Solubility of curcumin compounds; type: physicochemical; details: dissolved in DMSO, veins of the rat
[2] = test system: neutrophil infiltration of pancreatic tissue; test: Neutrophil infiltration assay of pancreatic tissue; type: in vivo; details: rat
Method: Neutrophil infiltration of pancreatic tissue was examined using methods known in the art. See Gukovskaya A S, et al. (1997); Gukovskaya A S, et al. (2002); Pandol S J, et al. (1999); Sandoval D, et al. (1996); and Vaquero E, et al. (2001). The pancreas was cut into about 2 to about 3 mm pieces and fixed in 4% paraformaldehyde for 2 hours. The tissue was then frozen in liquid nitrogen. 8-μm-thick serial cryostat sections of pancreatic tissue from control samples and test samples from Examples 1 and 2 were cut and mounted on glass slides. The slides were placed in phosphate buffered saline (PBS) for 5 minutes. This was repeated twice. Then the slides were transferred into blocking buffer (PBS containing 5% (wt/vol) goat serum, 0.5% bovine serum albumin (wt/vol) and 0.1% gelatin(wt/vol) for 1 hour at room temperature. Then the slides incubated with FITC-conjugated rabbit anti-rat neutrophil antibody (Accurate, Westbury, N.Y.) (diluted 1:120 in the blocking buffer) for 3 hours at room temperature. The slides were the transferred into the blocking buffer, incubated for 5 minutes, and repeated 4 times. Finally, coverslips were mounted over the tissue samples on the slide with the addition of anti-fading medium. The number of infiltrating neutrophils was obtained by counting the neutrophils at 40× magnification in an average of 50 fields covering at least about 1,000 acinar cells. For each sample, neutrophil numbers were expressed as a percentage of acinar cells.

NF-κB [3] = test: EMSA for NF-κB on nuclear extracts from pancreatic tissue; type: in vivo, rat; details: for NF-κB activation in the pancreas: rat
Method: Specifically, aliquots of nuclear extracts with equal amounts of protein (about 2 to about 10 mg) were mixed in 20 μl reactions with a buffer containing 10 mM HEPES (pH 7.8), 50 mM KCl, 0.1 mM EDTA, 1 mM DTT, 10% (vol/vol) glycerol, and 3 μg of poly(dI-dC).
(§1) The samples were electrophoresed at room temperature in 0.5×TBE buffer (1× TBE: 89 mM Tris base, 89 mM boric acid, 2 mM EDTA) on a non-denaturing 4.5% polyacrylamide gel at 200 V. The gels were dried and directly analyzed in the PhosphorImager (Molecular Dynamics, Sunnyvale, Calif.).
(§2) Nuclear protein extracts were prepared by methods known in the art. […] Briefly, samples of pancreatic tissue or isolated acini were rinsed in ice-cold PBS and homogenized in hypotonic Buffer A (20 mM β-glycerophosphate, 10 mM HEPES, pH 7.6, 1.5 mM MgCl2, 10 mM KCl, 10 mM Na2MoO4, 0.1 mM Na3VO4, 1 mM dithiothreitol (DTT), 1 mM phenylmethylsulfonyl fluoride (PMSF), 5 μg/ml each of protease inhibitors pepstatin, leupeptin, chymostatin, antipain and aprotinin). After incubating on ice for about 20 to about 25 minutes, the nonionic detergent Igepal CA-630 (Sigma, St. Louis, Mo.) was added to a final concentration of 0.3 to 0.4% (v/v), followed by an additional incubation on ice for about 1 to about 2 minutes. The crude nuclear pellet was collected by microcentrifugation for 30 seconds. The supernatant (cytosolic protein) was removed, and the nuclear pellet was resuspended in the high-salt buffer C (25% glycerol, 20 mM β-glycerophosphate, 10 mM HEPES, 1.5 mM MgCl2, 420 mM NaCl, 0.2 mM EDTA, 10 mM Na2MoO4, 0.1 mM Na3VO4, 1 mM DTT, 1 mM PMSF, 5 μg/ml each of protease inhibitors pepstatin, leupeptin, chymostatin, antipain and aprotinin. After rotating at 4° C. for up to 1 hour, nuclear membranes were pelleted by microcentrifugation for 10 minutes, and the clear supernatant (nuclear extract) was aliquoted and stored at −80° C. Protein concentration in the nuclear extract was determined by the Bio-Rad protein assay (Bio-Rad Laboratories, Hercules, Calif.).

AP-1 = test: EMSA for AP-1 on nuclear extracts from pancreatic tissue; type: in vivo; details: rat
Method: Specifically, aliquots of nuclear extracts with equal amounts of protein (about 2 to about 10 mg) were mixed in 20 μl reactions with a buffer containing 10 mM HEPES (pH 7.8), 50 mM KCl, 0.1 mM EDTA, 1 mM DTT, 10% (vol/vol) glycerol, and 3 μg of poly(dI-dC). Binding reactions were started by the addition of c. 60,000 cpm of ^32P-labeled DNA probe and allowed to proceed for about 20 to about 25 minutes at room temperature. The oligonucleotide probe for NF-κB:
5′-[sequence] (SEQ ID NO: 2), containing phorbol ester responsive element (TRE, underlined), were annealed with their complementary strands and end-labeled using Klenow DNA polymerase I (Stratagene, La Jolla, Calif.).
as §1, §2

[4] = test system: IL-6, TNF-α, KC and iNOS mRNA; test: RT-PCR for pancreatic mRNA expression of inflammatory molecules; type: in vivo; details: rat
Method: To determine whether the effects of curcumin on NF-κB and AP-1 activation translated into changes in the expression of inflammatory molecules, the effect of curcumin on pancreatic mRNA expression of several cytokines and other inflammatory molecules were measured by methods known in the art. See Blinman T A, et al. (2000); Gukovskaya A S, et al. (1999); Gukovsky I, et al. (1998); Pandol S J, et al. (1999); Vaquero E, et al. (2001); and Zaninovic V, et al. (2000). Briefly, total RNA was obtained from pancreatic tissue with TRI reagent (Molecular Research Center, Cincinnati, Ohio) and its quality was verified by ethidium bromide staining of rRNA bands on a denaturing agarose gel. RNA was reverse-transcribed with the SuperScript II preamplification kit (GIBCO-BRL, Rockville, Md.) and subjected to PCR with the rat gene specific, intron-spanning primers set forth in Target sequences were amplified at 56° C. using the same amount of cDNA for all primer sets. The RT-PCR products were all of expected size, and their identity was confirmed by direct sequencing. Negative controls were performed by omitting the RT step or cDNA template from the PCR amplification. The cycle number was adjusted between 22 (for the housekeeping ARP gene) and 36 cycles (for iNOS) in order to yield visible products within the linear amplification range. […]

caspase-3 = test: Caspase-3-like (DEVDase) activity in pancreatic tissue lysates; type: in vivo, rat; details: for Caspase-3-like (DEVDase) activity versus pancreatitis without curcumin: p<0.05; for augmentation of the increase in DEVDase activity: rat pancreas
Method: […] activity was measured by methods known in the art. See Gukovskaya A S, et al. (2002). Briefly, samples of pancreatic tissue were rinsed with ice-cold PBS and homogenized in a lysis buffer comprising 150 mM NaCl, 50 mM Tris-HCL (pH 7.5), 0.5% Igepal CA-630 (Sigma, St. Louis, Mo.), and 0.5 mM EDTA. Lysates were centrifuged for 10 minutes at 16,000× g and the supernatants were collected. Caspase activity was determined at 37° C. in a buffer comprising 25 mM HEPES (pH 7.5), 10% sucrose, 0.1% CHAPS, 10 mM DTT and […] Ac-DEVD-AMC, a specific fluorogenic substrate for measurement of caspase-3-like activity (AnaSpec, San Jose, Calif.). Cleavage of the substrate releases AMC that emits a fluorescent signal with excitation at 380 nm and emission at 440 nm. Fluorescence was calibrated using a standard curve for AMC. The data were expressed as mol AMC/min/mg protein.

NF-κB [5] = test: Curcumin and N-acetylcysteine alone and in combination, NF-κB activation in CCK-stimulated acinar cells; type: cell-based, rat; details: curcumin 50 μM alone, 0.1 μM CCK
Method: To measure the effects of curcumin compounds and ROS inhibitors, EMSAs and nuclear protein extractions were conducted as provided above. […] EMSAs for NF-κB activation were performed on nuclear proteins extracted from each sample.

NF-κB and AP-1 = details: various cell types and tissues; cited from earlier work
p38 MAP kinase = p38 MAP kinase (Homo sapiens, UniProt Q16539); details: various cell types and tissues; cited from earlier work
p38 MAP kinase, sequence (Q16539 whole entry): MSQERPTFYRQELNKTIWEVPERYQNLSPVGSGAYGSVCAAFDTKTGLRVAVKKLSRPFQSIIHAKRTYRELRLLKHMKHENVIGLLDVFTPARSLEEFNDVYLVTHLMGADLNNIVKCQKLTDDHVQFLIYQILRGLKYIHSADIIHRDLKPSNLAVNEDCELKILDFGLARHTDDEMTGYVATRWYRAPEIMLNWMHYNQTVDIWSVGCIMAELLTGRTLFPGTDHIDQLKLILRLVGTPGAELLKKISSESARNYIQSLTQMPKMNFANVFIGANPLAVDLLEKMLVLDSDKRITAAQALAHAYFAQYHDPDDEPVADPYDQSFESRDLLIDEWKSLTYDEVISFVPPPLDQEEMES

behaviour of DMSO solution diluted in saline on intravenous infusion [1]: precipitated
Structure (SMILES): COc1cc(/C=C/C(=O)CC(=O)/C=C/c2ccc(O)c(OC)c2)ccc1O [curcumin]
inhibition of neutrophil infiltration in the pancreas ([2]; cerulein pancreatitis): greater than 50%
neutrophil infiltration versus pancreatitis without curcumin ([2]; cerulein pancreatitis): significantly lower; also recorded: significantly inhibited
inhibition of neutrophil infiltration in the pancreas ([2]; ethanol/CCK pancreatitis): greater than 50%
neutrophil infiltration versus pancreatitis without curcumin ([2]; ethanol/CCK pancreatitis): significantly lower; also recorded: significantly inhibited
NF-κB activation in the pancreas (NF-κB [3]; cerulein pancreatitis): inhibits; also recorded: attenuated
NF-κB activity in the pancreas of control rats (NF-κB [3]; control (vehicle-infused) rats treated with curcumin): Virtually no NF-κB activity was detected
NF-κB activation in the pancreas (NF-κB [3]; ethanol/CCK pancreatitis): inhibits
AP-1 activation in the pancreas (AP-1; cerulein pancreatitis): markedly attenuated; also recorded: inhibited
AP-1 activation in the pancreas (AP-1; ethanol/CCK pancreatitis): almost completely blocked; also recorded: inhibited
pancreatic expression of IL-6, TNF-α, KC and iNOS ([4]; cerulein pancreatitis): markedly inhibited; also recorded: attenuated
pancreatic expression of IL-6, TNF-α, KC and iNOS ([4]; ethanol/CCK pancreatitis): markedly inhibited; also recorded: attenuated
Caspase-3-like (DEVDase) activity versus pancreatitis without curcumin (caspase-3; EtOH+CCK pancreatitis): significantly higher
augmentation of the increase in DEVDase activity (caspase-3; EtOH+CCK pancreatitis): greater than 2 fold
Caspase-3-like (DEVDase) activity versus pancreatitis without curcumin (caspase-3; cerulein pancreatitis): significantly higher
augmentation of the increase in DEVDase activity (caspase-3; cerulein pancreatitis): greater than 2 fold
inhibition of NF-κB activation in CCK-stimulated acinar cells (NF-κB [5]): very little inhibition
activation of NF-κB and AP-1 (NF-κB and AP-1): inhibits
effect on p38 MAP kinase (p38 MAP kinase): no effect
